US9637483B2, “Heterocyclic compound” (TAKEDA PHARMACEUTICAL COMPANY LIMITED, priority 2013, dated 2017)

Tests used:
Format in all cases: biochemical
[1] = biological target: T1, JAK1 (Homo sapiens, UniProt P23458); test: JAK1 enzyme inhibition test (LANCE method); details: 1 μM test compound; for inhibition at 1 µM: read-out: JAK1 enzyme inhibitory activity (%, 1 μM)
T1 construct: purchased Invitrogen
Outline: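 Inhibition expressed against no-enzyme wells (100% inhibition), from time-resolved fluorescence at 665 nm after Eu-anti-phosphotyrosine antibody/EDTA detection. Kinase reaction ran 1 h at room temperature, pH 7.5 HEPES buffer, ULight-JAK1 substrate and ATP diluted to 300 nM and 150 μM before addition.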

[2] = biological target: T2, JAK2 (Homo sapiens, UniProt O60674); test: JAK2 enzyme inhibition test (LANCE method); details: 1 μM test compound; for inhibition at 1 µM: read-out: JAK2 enzyme inhibitory activity (%, 1 μM)
T2 construct: purchased Invitrogen
T2 sequence (O60674 whole entry): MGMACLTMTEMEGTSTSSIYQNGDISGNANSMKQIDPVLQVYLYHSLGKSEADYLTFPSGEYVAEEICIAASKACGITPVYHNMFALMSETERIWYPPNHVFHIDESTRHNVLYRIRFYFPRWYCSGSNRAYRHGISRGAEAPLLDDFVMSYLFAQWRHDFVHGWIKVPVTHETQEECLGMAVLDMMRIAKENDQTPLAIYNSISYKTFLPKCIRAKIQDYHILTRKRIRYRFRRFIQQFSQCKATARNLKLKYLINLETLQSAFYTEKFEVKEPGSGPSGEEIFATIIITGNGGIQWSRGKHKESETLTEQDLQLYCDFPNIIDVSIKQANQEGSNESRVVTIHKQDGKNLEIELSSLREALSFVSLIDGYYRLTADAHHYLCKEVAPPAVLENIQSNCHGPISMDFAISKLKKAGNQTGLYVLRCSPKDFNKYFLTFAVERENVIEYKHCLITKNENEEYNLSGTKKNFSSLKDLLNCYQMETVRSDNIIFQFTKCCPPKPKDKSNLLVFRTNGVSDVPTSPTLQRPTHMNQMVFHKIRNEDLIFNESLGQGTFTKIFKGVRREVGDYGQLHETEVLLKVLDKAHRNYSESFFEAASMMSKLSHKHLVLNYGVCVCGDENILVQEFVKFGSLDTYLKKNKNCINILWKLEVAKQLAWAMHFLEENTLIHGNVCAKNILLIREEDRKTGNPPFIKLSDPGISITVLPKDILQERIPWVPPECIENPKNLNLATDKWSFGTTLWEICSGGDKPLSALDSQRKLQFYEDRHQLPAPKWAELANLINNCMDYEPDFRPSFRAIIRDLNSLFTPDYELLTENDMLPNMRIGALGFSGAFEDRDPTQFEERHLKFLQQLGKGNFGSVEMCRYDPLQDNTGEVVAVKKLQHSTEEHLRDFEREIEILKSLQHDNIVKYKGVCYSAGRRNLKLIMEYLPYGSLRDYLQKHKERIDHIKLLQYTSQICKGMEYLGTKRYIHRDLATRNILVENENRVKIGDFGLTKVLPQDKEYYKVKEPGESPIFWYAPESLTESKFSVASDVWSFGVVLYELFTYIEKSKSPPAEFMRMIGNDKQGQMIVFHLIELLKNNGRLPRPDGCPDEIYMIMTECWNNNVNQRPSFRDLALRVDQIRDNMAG
Outline: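 TR-FRET (LANCE) read-out, ex 340/em 665 nm with 100 μs delay, after 1 hr room-temperature detection with europium anti-phosphotyrosine antibody and 20 mM EDTA. The preceding 1 hr kinase reaction combined JAK2, ULight-JAK1 substrate and ATP, added as 6 ng/mL, 300 nM and 45 μM solutions; enzyme-free wells defined 100% inhibition.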

[3] = biological target: T3, JAK3 (Homo sapiens, UniProt P52333); test: JAK3 enzyme inhibition test (LANCE method); details: 1 μM test compound; for inhibition at 1 µM: read-out: JAK3 enzyme inhibitory activity (%, 1 μM)
T3 construct: purchased Invitrogen
T3 sequence (P52333 1-1124): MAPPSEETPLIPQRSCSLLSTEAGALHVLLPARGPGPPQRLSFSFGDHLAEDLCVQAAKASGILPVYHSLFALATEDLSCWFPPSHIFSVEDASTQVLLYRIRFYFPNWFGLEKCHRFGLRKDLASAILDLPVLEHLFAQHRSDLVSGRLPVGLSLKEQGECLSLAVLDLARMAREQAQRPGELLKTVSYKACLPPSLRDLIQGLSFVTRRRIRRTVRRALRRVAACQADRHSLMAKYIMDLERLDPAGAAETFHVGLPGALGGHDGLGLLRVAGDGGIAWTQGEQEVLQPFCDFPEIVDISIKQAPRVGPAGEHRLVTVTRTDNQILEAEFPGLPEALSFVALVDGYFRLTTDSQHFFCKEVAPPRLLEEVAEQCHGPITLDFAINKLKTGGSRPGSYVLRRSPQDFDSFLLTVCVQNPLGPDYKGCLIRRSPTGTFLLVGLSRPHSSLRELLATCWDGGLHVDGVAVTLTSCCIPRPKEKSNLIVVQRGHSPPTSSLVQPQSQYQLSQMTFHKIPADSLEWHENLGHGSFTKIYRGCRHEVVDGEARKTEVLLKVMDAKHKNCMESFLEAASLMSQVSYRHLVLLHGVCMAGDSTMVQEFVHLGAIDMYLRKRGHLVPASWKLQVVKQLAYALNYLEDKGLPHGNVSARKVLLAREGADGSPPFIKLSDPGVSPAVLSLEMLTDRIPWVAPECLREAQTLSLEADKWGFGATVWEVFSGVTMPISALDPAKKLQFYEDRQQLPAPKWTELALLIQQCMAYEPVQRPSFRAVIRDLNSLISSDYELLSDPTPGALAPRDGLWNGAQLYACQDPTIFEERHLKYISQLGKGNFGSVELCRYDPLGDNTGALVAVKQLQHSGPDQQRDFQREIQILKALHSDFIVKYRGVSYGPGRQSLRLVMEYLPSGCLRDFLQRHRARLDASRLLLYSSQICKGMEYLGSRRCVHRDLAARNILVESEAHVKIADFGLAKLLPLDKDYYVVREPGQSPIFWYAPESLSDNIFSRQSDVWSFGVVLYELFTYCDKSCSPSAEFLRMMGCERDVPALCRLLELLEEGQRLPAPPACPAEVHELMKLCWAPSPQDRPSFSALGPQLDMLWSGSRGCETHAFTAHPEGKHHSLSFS
Outline: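 TR-FRET (LANCE) read: 1 h room-temperature reaction, EDTA quench, Eu-anti-phosphotyrosine antibody, emission 665 nm after 340 nm excitation. Added solutions held 12 ng/mL JAK3, 300 nM ULight-JAK1 substrate and 15 μM ATP (pH 7.5 HEPES). Activity expressed against no-enzyme wells defined as full inhibition.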

[4] = biological target: T4, TYK2 (Homo sapiens, UniProt P29597); test: TYK2 enzyme inhibition test (LANCE method); details: 1 μM test compound; for inhibition at 1 µM: read-out: TYK2 enzyme inhibitory activity (%, 1 μM)
T4 construct: purchased Invitrogen
T4 sequence (P29597 whole entry): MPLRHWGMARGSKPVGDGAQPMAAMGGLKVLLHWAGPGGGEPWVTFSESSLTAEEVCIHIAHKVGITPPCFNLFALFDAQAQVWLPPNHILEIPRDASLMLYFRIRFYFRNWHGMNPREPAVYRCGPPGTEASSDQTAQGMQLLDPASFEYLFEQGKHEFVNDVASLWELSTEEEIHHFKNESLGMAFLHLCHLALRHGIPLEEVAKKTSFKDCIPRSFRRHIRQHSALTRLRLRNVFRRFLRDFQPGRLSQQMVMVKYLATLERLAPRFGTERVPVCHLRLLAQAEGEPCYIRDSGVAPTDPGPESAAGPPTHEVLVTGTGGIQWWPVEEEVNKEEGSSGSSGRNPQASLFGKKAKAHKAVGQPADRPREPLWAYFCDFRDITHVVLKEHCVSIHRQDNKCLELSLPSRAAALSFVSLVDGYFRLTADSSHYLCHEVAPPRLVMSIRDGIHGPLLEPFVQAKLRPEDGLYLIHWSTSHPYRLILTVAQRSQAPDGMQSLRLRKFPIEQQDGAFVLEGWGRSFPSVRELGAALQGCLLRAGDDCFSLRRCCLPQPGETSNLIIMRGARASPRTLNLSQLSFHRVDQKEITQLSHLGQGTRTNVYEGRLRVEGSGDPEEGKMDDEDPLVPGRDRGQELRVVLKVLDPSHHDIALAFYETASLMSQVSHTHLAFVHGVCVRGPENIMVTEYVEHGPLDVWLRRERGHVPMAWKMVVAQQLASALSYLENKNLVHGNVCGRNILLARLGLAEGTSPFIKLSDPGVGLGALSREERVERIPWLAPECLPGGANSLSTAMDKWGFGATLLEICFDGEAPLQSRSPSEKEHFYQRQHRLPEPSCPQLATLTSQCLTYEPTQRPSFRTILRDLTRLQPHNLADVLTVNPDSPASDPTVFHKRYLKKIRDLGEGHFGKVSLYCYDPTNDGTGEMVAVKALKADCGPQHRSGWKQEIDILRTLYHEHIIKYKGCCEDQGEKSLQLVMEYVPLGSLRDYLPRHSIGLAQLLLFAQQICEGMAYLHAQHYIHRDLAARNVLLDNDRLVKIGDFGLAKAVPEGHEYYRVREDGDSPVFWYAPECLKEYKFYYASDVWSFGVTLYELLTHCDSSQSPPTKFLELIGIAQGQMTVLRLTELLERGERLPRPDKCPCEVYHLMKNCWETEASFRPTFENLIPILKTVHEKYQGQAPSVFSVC
Outline: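 TR-FRET (LANCE) readout: after 1 h room-temperature kinase reaction, EDTA plus 4 nM Eu-labelled anti-phosphotyrosine antibody added, signal at 665 nm (340 nm excitation). Reaction combined TYK2, ULight-JAK1 substrate and ATP, prepared at 375 ng/mL, 300 nM and 30 μM before addition, in pH 7.5 HEPES/MgCl2 buffer; enzyme-free wells define full inhibition.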

T1 sequence (P23458 whole entry): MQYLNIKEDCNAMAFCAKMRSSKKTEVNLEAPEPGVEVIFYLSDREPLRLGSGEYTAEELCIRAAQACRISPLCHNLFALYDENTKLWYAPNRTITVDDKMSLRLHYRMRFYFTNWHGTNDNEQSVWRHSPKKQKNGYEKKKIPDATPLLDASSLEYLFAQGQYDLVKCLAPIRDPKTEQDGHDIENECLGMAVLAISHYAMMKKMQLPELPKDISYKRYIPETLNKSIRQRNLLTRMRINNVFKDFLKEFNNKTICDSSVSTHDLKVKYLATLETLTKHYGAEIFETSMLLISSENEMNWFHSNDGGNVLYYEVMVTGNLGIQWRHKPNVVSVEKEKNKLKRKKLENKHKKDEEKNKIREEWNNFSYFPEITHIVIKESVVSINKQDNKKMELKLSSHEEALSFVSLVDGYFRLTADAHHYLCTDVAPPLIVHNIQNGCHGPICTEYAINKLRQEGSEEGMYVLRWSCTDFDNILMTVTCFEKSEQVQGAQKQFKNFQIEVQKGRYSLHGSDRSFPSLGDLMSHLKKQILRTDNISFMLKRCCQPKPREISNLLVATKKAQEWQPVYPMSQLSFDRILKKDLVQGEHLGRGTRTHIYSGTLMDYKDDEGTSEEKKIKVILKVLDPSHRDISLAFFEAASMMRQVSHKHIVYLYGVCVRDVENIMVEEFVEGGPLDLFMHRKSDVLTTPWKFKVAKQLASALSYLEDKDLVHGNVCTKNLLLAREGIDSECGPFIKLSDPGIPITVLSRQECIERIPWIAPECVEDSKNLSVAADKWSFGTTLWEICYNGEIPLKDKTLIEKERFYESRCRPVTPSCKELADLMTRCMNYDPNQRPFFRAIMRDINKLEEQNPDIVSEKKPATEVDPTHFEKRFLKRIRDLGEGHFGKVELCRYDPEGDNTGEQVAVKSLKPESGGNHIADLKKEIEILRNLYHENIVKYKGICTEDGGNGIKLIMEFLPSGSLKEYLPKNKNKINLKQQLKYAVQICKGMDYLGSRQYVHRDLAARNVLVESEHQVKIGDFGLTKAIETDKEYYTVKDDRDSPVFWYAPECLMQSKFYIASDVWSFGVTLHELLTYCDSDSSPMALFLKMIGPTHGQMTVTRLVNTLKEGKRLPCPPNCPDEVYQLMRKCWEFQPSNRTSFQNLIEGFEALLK

Row | SMILES | inhibition at 1 µM [1] [%] | inhibition at 1 µM [2] [%] | inhibition at 1 µM [3] [%] | inhibition at 1 µM [4] [%] | JAK1 enzyme inhibitory activity (%, 1 μM) [1] [%] | JAK2 enzyme inhibitory activity (%, 1 μM) [2] [%] | JAK3 enzyme inhibitory activity (%, 1 μM) [3] [%] | TYK2 enzyme inhibitory activity (%, 1 μM) ([4]; 1 µM) [%] | JAK2 enzyme inhibitory activity (%, 1 μM) ([2]; 1 µM) [%] | JAK3 enzyme inhibitory activity (%, 1 μM) ([3]; 1 µM) [%] | TYK2 enzyme inhibitory activity (%, 1 μM) [4] [%]
1 | CC(C)[C@H](C)n1cc(-c2cc(C(C)(C)C#N)n(C)n2)c2[nH]nc(N)c2c1=O [Example 57, 2-(3-(3-amino-5-((2S)-3-methylbutan-2-yl)-4-oxo-4,5-dihydro-1H-pyrazolo[4,3-c]pyridin-7-yl)-1-methyl-1H-pyrazol-5-yl)-2-methylpropanenitrile] | 99 | 99 | 99 | 99 | – | – | – | – | – | – | –
2 | CC(C)[C@H](C)n1cc(-c2cc(C3CCOCC3)n(C)n2)c2[nH]nc(N)c2c1=O [Example 58] | 97 | 99 | 100 | 100 | – | – | – | – | – | – | –
3 | CC(C)[C@H](C)n1cc(-c2cc(N3CCN4CCCC4C3)n(C)n2)c2[nH]nc(N)c2c1=O (stereo partly drawn) [Example 61, 3-amino-7-(5-(hexahydropyrrolo[1,2-a]pyrazin-2 (H)-yl)-1-methyl-1H-pyrazol-3-yl)-5-((2S)-3-methylbutan-2-yl)-1,5-dihydro-4H-pyrazolo[4,3-c]pyridin-4-one] | – | – | – | – | 97 | – | – | – | 99 | 100 | 99
4 | CC(C)[C@H](C)n1cc(-c2cc(N3CCN4CCCC4C3)n(C)n2)c2[nH]nc(N)c2c1=O (stereo partly drawn) [Example 62, 3-amino-7-(5-(hexahydropyrrolo[1,2-a]pyrazin-2 (H)-yl)-1-methyl-1H-pyrazol-3-yl)-5-((2S)-3-methylbutan-2-yl)-1,5-dihydro-4H-pyrazolo[4,3-c]pyridin-4-one] | – | – | – | – | 97 | – | – | – | 99 | 99 | 99
5 | CC(C)[C@H](C)n1cc(-c2cc(N3CCC(C)(O)C3)n(C)n2)c2[nH]nc(N)c2c1=O (stereo partly drawn) [Example 63, 3-amino-7-(5-(3-hydroxy-3-methylpyrrolidin-1-yl)-1-methyl-1H-pyrazol-3-yl)-5-((2S)-3-methylbutan-2-yl)-1,5-dihydro-4H-pyrazolo[4,3-c]pyridin-4-one] | – | – | – | – | 96 | – | – | 99 | 99 | 100 | –
6 | CNC(=O)c1cc(-c2cn(-c3c(F)cccc3F)c(=O)c3c(N)n[nH]c23)nn1C [Example 65, 3-(3-amino-5-(2,6-difluorophenyl)-4-oxo-4,5-dihydro-1H-pyrazolo[4,3-c]pyridin-7-yl)-N,1-dimethyl-1H-pyrazole-5-carboxamide] | 99 | 98 | 100 | 100 | – | – | – | – | – | – | –

The next lines start with the values.

Row | inhibition at 1 µM [1] [%] | inhibition at 1 µM [2] [%] | inhibition at 1 µM [3] [%] | inhibition at 1 µM [4] [%] | JAK1 enzyme inhibitory activity (%, 1 μM) [1] [%] | JAK2 enzyme inhibitory activity (%, 1 μM) [2] [%] | JAK3 enzyme inhibitory activity (%, 1 μM) [3] [%] | TYK2 enzyme inhibitory activity (%, 1 μM) ([4]; 1 µM) [%] | JAK2 enzyme inhibitory activity (%, 1 μM) ([2]; 1 µM) [%] | JAK3 enzyme inhibitory activity (%, 1 μM) ([3]; 1 µM) [%] | TYK2 enzyme inhibitory activity (%, 1 μM) [4] [%] | SMILES
7 | – | – | – | – | 97 | 98 | 99 | 100 | – | – | – | CC1CN(c2cc(-c3cn([C@@H](C)C(C)C)c(=O)c4c(N)n[nH]c34)nn2C)CCO1 (stereo partly drawn) [Example 59, 3-amino-5-((2S)-3-methylbutan-2-yl)-7-(1-methyl-5-(2-methylmorpholin-4-yl)-1H-pyrazol-3-yl)-1,5-dihydro-4H-pyrazolo[4,3-c]pyridin-4-one]
8 | – | – | – | – | 96 | 98 | 99 | 99 | – | – | – | CC1CN(c2cc(-c3cn([C@@H](C)C(C)C)c(=O)c4c(N)n[nH]c34)nn2C)CCO1 (stereo partly drawn) [Example 60, 3-amino-5-((2S)-3-methylbutan-2-yl)-7-(1-methyl-5-(2-methylmorpholin-4-yl)-1H-pyrazol-3-yl)-1,5-dihydro-4H-pyrazolo[4,3-c]pyridin-4-one]
9 | – | – | – | – | 97 | – | – | 100 | 99 | 99 | – | CC(C)[C@H](C)n1cc(-c2cc(N3CCC(C)(O)C3)n(C)n2)c2[nH]nc(N)c2c1=O (stereo partly drawn) [Example 64, 3-amino-7-(5-(3-hydroxy-3-methylpyrrolidin-1-yl)-1-methyl-1H-pyrazol-3-yl)-5-((2S)-3-methylbutan-2-yl)-1,5-dihydro-4H-pyrazolo[4,3-c]pyridin-4-one]
